Data as given in patent publication US20260297016A1, “THERAPEUTIC COMPOUNDS” (REGENTS OF THE UNIVERSITY OF MINNESOTA, priority 2023, published 2026).

Key:
[1] = molecular target: T1, STING (Homo sapiens, UniProt Q86WV6, G230A/H232R/R293Q/R71H); assay: IRF-Lucia Reporter STING Inhibition Assay (THP-1 Lucia ISG cells); type: cell-based; conditions: 1 μM 2,3-cGAMP, 20 hours
T1 construct: THP-1 Lucia ISG cells (InvivoGen, thpl-isg); host or cells: THP-1 Lucia ISG cells
Protocol: IRF-Lucia Reporter STING Inhibition Assay. […] Cells were incubated at 37° C. in a 5% CO2 atmosphere with varying concentrations of test compound for 1.5 hours, followed by treatment with 1 μM 2,3-cGAMP (InvivoGen, tlrl-nacga23-02) and incubated for 20 hours. A 20 μL aliquot of cell suspension was added to 50 μL. QUANTI-Luc™ reagent (InvivoGen, rep-qlc4lg2), and the resulting luminescence is measured by a GloMax Explorer (Promega) with a 0.1 second read time.

[2] = molecular target: T2, human PPARα (Homo sapiens, UniProt Q07869); assay: Cell-based Luciferase Assay, human PPARα agonist activity (Indigo Biosciences hPPARα IB00111); conditions: for activation at 0.5 µM: read-out: % PPAR-alpha AGONISM, % at 0.5 μm; for activation at 5 µM: read-out: % PPAR-alpha AGONISM, % at 5 μm; for activation at 50 µM: read-out: % PPAR-alpha AGONISM, % at 50 μm
T2 construct: borders undisclosed
T2 sequence (Q07869 1-468): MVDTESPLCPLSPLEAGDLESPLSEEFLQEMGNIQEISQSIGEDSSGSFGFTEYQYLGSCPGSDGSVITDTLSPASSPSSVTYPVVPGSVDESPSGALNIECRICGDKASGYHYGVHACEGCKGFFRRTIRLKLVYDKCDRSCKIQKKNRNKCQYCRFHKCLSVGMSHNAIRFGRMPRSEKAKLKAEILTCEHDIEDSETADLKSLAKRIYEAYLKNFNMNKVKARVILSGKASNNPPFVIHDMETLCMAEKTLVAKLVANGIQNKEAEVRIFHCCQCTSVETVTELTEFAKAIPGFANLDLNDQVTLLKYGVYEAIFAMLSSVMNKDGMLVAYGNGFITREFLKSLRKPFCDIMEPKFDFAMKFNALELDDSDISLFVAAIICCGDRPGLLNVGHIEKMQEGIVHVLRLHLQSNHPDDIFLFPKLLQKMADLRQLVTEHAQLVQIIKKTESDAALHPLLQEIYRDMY
Text: Cell-based Luciferase Assay. […] Luminescence was quantified using a GloMax Explorer (Promega).

T1 sequence (Q86WV6 whole entry R71H/G230A/H232R/R293Q): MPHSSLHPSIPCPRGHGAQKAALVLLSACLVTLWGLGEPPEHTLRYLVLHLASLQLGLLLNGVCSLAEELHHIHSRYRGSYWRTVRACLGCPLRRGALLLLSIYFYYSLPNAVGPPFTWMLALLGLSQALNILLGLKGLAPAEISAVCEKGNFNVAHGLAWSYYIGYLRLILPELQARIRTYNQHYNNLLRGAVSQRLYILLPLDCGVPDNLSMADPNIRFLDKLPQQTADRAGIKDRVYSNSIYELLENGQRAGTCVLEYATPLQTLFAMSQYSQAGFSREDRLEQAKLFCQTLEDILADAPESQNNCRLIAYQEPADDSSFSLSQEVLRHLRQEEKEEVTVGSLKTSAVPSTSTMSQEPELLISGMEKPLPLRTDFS

Row | Compound | % STING INHIBITION, % at 12.5 μm [1] [%] | % STING INHIBITION, % at 25 μm [1] [%] | % STING INHIBITION, % at 50 μm [1] [%] | activation at 0.5 µM [2] [%] | activation at 5 µM [2] [%] | activation at 50 µM [2] [%] | PPAR-alpha agonism of the positive control ([2]; 90 nM) | cytotoxicity of the positive control ([2]; 90 nM)
1 | Cc1cc(CNc2cc(F)cc(C(=O)O)c2)ccc1-c1ccc(C(F)(F)F)cc1C [Example 12, 3-(((2,2′-Dimethyl-4′-(trifluoromethyl)-[1,1′-biphenyl]-4-yl)methyl)amino)-5-fluorobenzoic Acid] | – | – | – | 14.1 | 46.3 | 26.5 | – | –
2 | O=C(O)c1cc(F)cc(NCc2ccc(-c3ccccc3)cc2)c1 [Example 8, 3-(([1,1′-Biphenyl]-4-ylmethyl)amino)-5-fluorobenzoic Acid] | – | – | – | 17.6 | 50.3 | 95.2 | – | –
3 | O=C(O)c1cccc(NCc2ccc(-c3ccc(C(F)(F)F)cc3)cc2)c1F [Example 4, 2-Fluoro-3-(((4′-(trifluoromethyl)-[1,1′-biphenyl]-4-yl)methyl)amino)benzoic acid] | – | – | – | 73.7 | 120 | 20.9 | – | –
4 | Cc1cc(C(F)(F)F)ccc1-c1ccc(CNc2cc(F)cc(C(=O)O)c2)cc1 [Example 13, 3-Fluoro-5-(((2′-methyl-4′-(trifluoromethyl)-[1,1′-biphenyl]-4-yl)methyl)amino)benzoic Acid] | – | – | – | 38.3 | 47.4 | 27.5 | – | –
5 | N#Cc1ccc(-c2ccc(CNc3cc(F)cc(C(=O)O)c3)cc2)cc1 [Example 14, 3-(((4′-Cyano-[1,1′-biphenyl]-4-yl)methyl)amino)-5-fluorobenzoic Acid] | – | – | – | 7 | 58.7 | 83.8 | – | –
6 | O=C(O)c1cc(F)cc(NCc2ccc(-c3ccc(C(F)(F)F)cc3)cc2O)c1 [Example 9, 3-Fluoro-5-(((3-hydroxy-4′-(trifluoromethyl)-[1,1′-biphenyl]-4-yl)methyl)amino)benzoic Acid] | – | – | – | 8 | 49.6 | 46.8 | – | –
7 | O=C(O)c1ccc(F)c(NCc2ccc(-c3ccc(C(F)(F)F)cc3)cc2)c1 [Example 7, 4-Fluoro-3-(((4′-(trifluoromethyl)-[1,1′-biphenyl]-4-yl)methyl)amino)benzoic acid] | – | – | – | 6.6 | 98 | 68.1 | – | –
8 | O=C(O)c1cccc(NCc2ccc(-c3ccc(F)cc3)cc2)c1 [Example 1, 3-(((4′-Fluoro-[1,1′-biphenyl]-4-yl)methyl)amino)benzoic acid] | – | – | – | 35.6 | 125 | 55.1 | – | –
9 | O=C(O)c1cccc(NCc2ccc(-c3ccc(C(F)(F)F)cc3)cc2)c1 [Example 2, 3-(((4′-(Trifluoromethyl)-[1,1′-biphenyl]-4-yl)methyl)amino)benzoic acid] | – | – | – | 74.7 | 103 | 27.4 | – | –
10 | O=C(O)c1cc(F)cc(NCc2cc(Cl)c(-c3ccc(C(F)(F)F)cc3)c(Cl)c2)c1 [Example 10, 3-(((2,6-Dichloro-4′-(trifluoromethyl)-[1,1′-biphenyl]-4-yl)methyl)amino)-5-fluorobenzoic acid] | – | – | – | 0 | 37.2 | 17.4 | – | –
11 | COc1ccc(-c2ccc(CNc3cccc(C(=O)O)c3)cc2)cc1 [Example 3, 3-(((4′-Methoxy-[1,1′-biphenyl]-4-yl)methyl)amino)benzoic acid] | – | – | – | 32.9 | 112 | 98.3 | – | –
12 | O=C(O)c1cc(NCc2ccc(-c3ccc(C(F)(F)F)cc3)cc2)ccc1F [Example 5, 2-Fluoro-5-(((4′-(trifluoromethyl)-[1,1′-biphenyl]-4-yl)methyl)amino)benzoic acid] | – | – | – | 67.4 | 92.5 | 54.4 | – | –

More lines, main results first:

Row | % STING INHIBITION, % at 12.5 μm [1] [%] | % STING INHIBITION, % at 25 μm [1] [%] | % STING INHIBITION, % at 50 μm [1] [%] | activation at 0.5 µM [2] [%] | activation at 5 µM [2] [%] | activation at 50 µM [2] [%] | PPAR-alpha agonism of the positive control ([2]; 90 nM) | Compound | cytotoxicity of the positive control ([2]; 90 nM)
13 | 0 | 39 | 90 | – | – | – | – | O=C(O)c1cc(NCc2ccc(-c3ccc(F)c([N+](=O)[O-])c3)cc2)ccc1O [Example 38, 5-(((4′-Fluoro-3′-nitro-[1,1′-biphenyl]-4-yl)methyl)amino)-2-hydroxybenzoic acid] | –
14 | 0 | 0 | 0 | – | – | – | – | COc1ccc(-c2ccc(CNc3ccc(O)c(C(=O)O)c3)cc2)cc1 [Example 33] | –
15 | – | – | – | 22.1 | 62.2 | 42.1 | – | O=C(O)c1cc(F)cc(NCc2ccc(-c3ccc(C(F)(F)F)cc3)cn2)c1 [Example 22, 3-Fluoro-5-(((5-(4-(trifluoromethyl)phenyl)pyridin-2-yl)methyl)amino)benzoic Acid] | –
16 | 9 | 50 | 80 | – | – | – | – | O=C(O)c1cc(O)cc(NCc2ccc(-c3ccc(F)cc3)cc2)c1 [Example 45, 3-(((4′-Fluoro-[1,1′-biphenyl]-4-yl)methyl)amino)-5-hydroxybenzoic acid] | –
17 | 40 | 80 | 99 | – | – | – | – | N#Cc1cc(NCc2ccc(-c3ccc(F)cc3)cc2)ccc1O [Example 47, 5-(((4′-Fluoro-[1,1′-biphenyl]-4-yl)methyl)amino)-2-hydroxybenzonitrile] | –
18 | – | – | – | 27 | 139 | 91 | – | O=C(O)c1cc(F)cc(NCc2cn(-c3ccc(C(F)(F)F)cc3)nn2)c1 [Example 29, 3-fluoro-5-(((1-(4-(trifluoromethyl)phenyl)-1H-1,2,3-triazol-4-yl)methyl)amino)benzoic Acid] | –
19 | – | – | – | 21.7 | 88.7 | 42.4 | – | O=C(O)c1cc(F)cc(NCc2csc(-c3ccc(C(F)(F)F)cc3)n2)c1 [Example 25, 3-fluoro-5-(((2-(4-(trifluoromethyl)phenyl)thiazol-4-yl)methyl)amino)benzoic Acid] | –
20 | – | – | – | 13.1 | 21.5 | 58.6 | – | O=C(O)c1cccc(NCc2cn(-c3ccc(F)cc3)nn2)c1 [Example 28, 3-(((1-(4-fluorophenyl)-1H-1,2,3-triazol-4-yl)methyl)amino)benzoic Acid] | –
21 | – | – | – | 15.7 | 83.3 | 74.9 | – | O=C(O)c1cc(F)cc(NCc2cnc(-c3ccc(C(F)(F)F)cc3)s2)c1 [Example 24, 3-fluoro-5-(((2-(4-(trifluoromethyl)phenyl)thiazol-5-yl)methyl)amino)benzoic Acid] | –
22 | – | – | – | – | – | – | full agonism | CC(C)(Sc1ccc(CCN(CCCCC2CCCCC2)C(=O)NC2CCCCC2)cc1)C(=O)O [GW7647, reference compound] | without signs of cytotoxicity
23 | – | – | – | 38.6 | 80 | 87.8 | – | O=C(O)c1cc(F)cc(NCc2ccc(-c3ccc(Cl)cc3)cc2)c1 [Example 18, 3-(((4′-Chloro-[1,1′-biphenyl]-4-yl)methyl)amino)-5-fluorobenzoic acid] | –
24 | – | – | – | 51.1 | 94.3 | 58.5 | – | O=C(O)c1cccc(NCc2cn(-c3ccc(C(F)(F)F)cc3)nn2)c1 [Example 27, 3-(((1-(4-(trifluoromethyl)phenyl)-1H-1,2,3-triazol-4-yl)methyl)amino)benzoic Acid] | –
25 | – | – | – | 10.6 | 14.2 | 50 | – | O=C(O)c1cc(F)cc(NCc2csc(-c3ccc(F)cc3)n2)c1 [Example 26, 3-fluoro-5-(((2-(4-fluorophenyl)thiazol-4-yl)methyl)amino)benzoic Acid] | –
26 | – | – | – | 40.6 | 101 | 98.9 | – | Cc1ccc(-c2ccc(CNc3cc(F)cc(C(=O)O)c3)cc2)cc1 [Example 19, 3-Fluoro-5-(((4′-methyl-[1,1′-biphenyl]-4-yl)methyl)amino)benzoic acid] | –
27 | – | – | – | 38.2 | 58.5 | 48 | – | O=C(O)c1cc(F)cc(NCc2ccc(-c3ccc(C4CCCC4)cc3)cc2)c1 [Example 20, 3-(((4′-Cyclopentyl-[1,1′-biphenyl]-4-yl)methyl)amino)-5-fluorobenzoic acid] | –
28 | – | – | – | 38.2 | 106 | 96 | – | COc1ccc(-c2ccc(CNc3cc(F)cc(C(=O)O)c3)cc2)cc1 [Example 16, 3-Fluoro-5-(((4′-methoxy-[1,1′-biphenyl]-4-yl)methyl)amino)benzoic acid] | –
29 | – | – | – | 9.6 | 19.1 | 48.8 | – | O=C(O)c1cc(F)cc(NCc2cn(-c3ccc(F)cc3)nn2)c1 [Example 30, 3-fluoro-5-(((1-(4-fluorophenyl)-1H-1,2,3-triazol-4-yl)methyl)amino)benzoic Acid] | –
